According to publication PMC4153677, “Probing the Activity Modification Space of the Cysteine Peptidase Cathepsin K with Novel Allosteric Modifiers” (PLoS ONE, 2014):

Biological target: T1, Recombinant human cathepsin K (Homo sapiens, UniProt P43235)
T1 construct: made in house
T1 sequence (P43235 115-329): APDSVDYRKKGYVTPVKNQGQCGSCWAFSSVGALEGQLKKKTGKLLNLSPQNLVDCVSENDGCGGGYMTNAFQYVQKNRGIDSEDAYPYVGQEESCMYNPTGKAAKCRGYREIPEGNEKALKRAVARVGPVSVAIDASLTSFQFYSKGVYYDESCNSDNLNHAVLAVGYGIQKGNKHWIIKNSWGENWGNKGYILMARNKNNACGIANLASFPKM
Assay: Kinetic measurements, hydrolysis of the fluorogenic substrate Z-FR↓AMC (general modifier mechanism)
Assay type: biochemical
Set-up: key to α (coefficient, effect of modifier on the affinity for the substrate) / β (coefficient, effect of modifier on the catalytic rate): dimensionless coefficients multiplying KS (α) and kcat (β)
Experimental: All modifiers were tested for their effect on the hydrolysis of the low molecular mass synthetic substrate Z-FR↓AMC. Since all progress curves were linear from the beginning of the reaction, initial velocities were calculated from the slopes by linear regression. […] The basic mechanism considered for the analysis of the interactions was the general modifier mechanism shown in Figure 2, in which the effect of modifier is determined by the values of the coefficients α and β that multiply the kinetic parameters K S, K A (α) and k cat (β). In the thermodynamic box embodied in Figure 2, the reciprocal of the coefficient α represents the allosteric coupling constant that characterizes energy linkage between the modifier and the substrate, while a […] represents the effect exerted by the modifier on catalysis. The specific velocity plot was used for the primary screening of the kinetic behavior of the modifiers (Equation 2), as it allows an immediate judgment of the type of interaction and to gather preliminary estimates of the coefficients α and β, as well as of the dissociation constant of the modifier. Refinement was then performed by fitting the rate Equation 1 to data.
Figure 3 Kinetic mechanisms of the identified modifiers. All compounds were characterized by a combination of specific velocity plots (upper panels) and titration curves recorded at fixed substrate concentrations (lower panels). All experiments were performed at 25±1°C in 100 mM sodium acetate buffer pH 5.50 containing 1 mM EDTA and 2.5 mM DTT using the fluorogenic substrate Z-FR↓AMC and at a final enzyme concentration of 0.5 nM.
All kinetic measurements were performed in 100 mM sodium acetate buffer pH 5.50 containing 1 mM EDTA and 2.5 mM dithiothreitol (DTT) in single-use acrylic cuvettes (1×1 cm) thermostatted at 25±1°C with magnetic stirring. The hydrolysis of Z-FR↓AMC was followed fluorometrically at λex 383 nm and λem 455 nm. All tested modifiers were analyzed spectroscopically to determine their absorption properties under the conditions used in the assays. When necessary, appropriate corrections were made to the calculated reaction rates to take into account the inner filter effect.
The effects of the modifiers on enzymatic activity were analyzed with the general modifier mechanism which describes the interaction between enzyme (E), substrate (S) and modifier (A), as shown in Figure 2. Assuming that binding of A to E and ES is at quasi-equilibrium and that steady-state conditions are established in the fluxes around ES and ESA (i.e. the catalytic steps), the reaction rate for the mechanism in Figure 2 is defined by Equation 1: [drawing 2] (1) where v 0 is the reaction rate in the absence of modifier, K A is the equilibrium dissociation constant of the EA complex, α and β are dimensionless coefficients and σ = [S]/K m, approximated to [S]/K s. To determine the mechanism of interaction, plot the kinetic data and calculate preliminary values of the interaction parameters, the specific velocity plot was used. For this purpose, Equation 1 is rewritten as:
The plot of v 0/v A versus σ/(1+σ) produces straight lines with intersection points at v 0/v A = 1, regardless of the interaction mechanism. The parameters α, β and K A are determined by replotting the extrapolated values of the straight lines at σ/(1+σ) = 0 (a) and σ/(1+σ) = 1 (b) versus 1/[A] in the form: [drawing 4] (3) [drawing 5] (4)

OC(c1cc(-c2ccc(C(F)(F)F)cc2)nc(C(F)(F)F)c1)C1CCCCN1 (stereo not drawn) [Compound 2, Piperidin-2-yl-[2-(trifluoromethyl)-6-[4-(trifluoromethyl)phenyl]pyridin-4-yl] methanol]
Z-FRAMC: geometric mean of residual activities (vA) (at 0.1×Km and 10×Km substrate, modifier 10×KA, calculated with Equation 1 from α and β of Table 3, unmodified enzyme = 1.00): 0.42
β (coefficient, effect of modifier on the catalytic rate) (substrate Z-FR↓AMC, pH 5.50, 25°C, 0.5 nM enzyme): 0.74±0.13
Kd (substrate Z-FR↓AMC, pH 5.50, 25°C, 0.5 nM enzyme, read-out: K A (equilibrium dissociation constant of the EA complex)): 150 ± 50 µM
